Data from the NIST ThermoML archive (doi:10.1021/acs.jced.6b00516).

Experiment: xn = mol fraction of the nth substance listed
Details: for viscosity / speed of sound: 102 kPa, Liquid; for viscosity: Concentric cylinders viscometry; for speed of sound: Frequency=3 MHz, Sing-around technique in a fixed-path interferometer; for surface tension liquid-gas: 294.4 K, Sessile Drop

CCCCC1CCCCC1 [butylcyclohexane] + Cc1ccccc1
Details | speed of sound [m/s] | viscosity [mPa·s]
293.15 K, x1 = 0.0681 | 1321.1 | 0.622
293.15 K, x1 = 0.1544 | 1316.7 | 0.649
293.15 K, x1 = 0.2197 | 1314.5 | 0.678
293.15 K, x1 = 0.3045 | 1313 | 0.721
293.15 K, x1 = 0.3964 | 1312.8 | 0.774
293.15 K, x1 = 0.4964 | 1313.5 | 0.838
293.15 K, x1 = 0.6046 | 1315.6 | 0.916
293.15 K, x1 = 0.7244 | 1318.9 | 1.02
293.15 K, x1 = 0.8548 | 1323.3 | 1.16
293.15 K, x1 = 1 | – | 1.31
303.15 K, x1 = 0.0681 | 1278.6 | 0.552
303.15 K, x1 = 0.1544 | 1274.6 | 0.578
303.15 K, x1 = 0.2197 | 1272.7 | 0.603
303.15 K, x1 = 0.3045 | 1271.6 | 0.638
303.15 K, x1 = 0.3964 | 1271.6 | 0.683
303.15 K, x1 = 0.4964 | 1272.7 | 0.735
303.15 K, x1 = 0.6046 | 1275 | 0.8
303.15 K, x1 = 0.7244 | 1278.6 | 0.885
303.15 K, x1 = 0.8548 | 1283.3 | 0.991
303.15 K, x1 = 1 | – | 1.12
313.15 K, x1 = 0.0681 | 1236.5 | 0.495
313.15 K, x1 = 0.1544 | 1232.9 | 0.518
313.15 K, x1 = 0.2197 | 1231.4 | 0.538
313.15 K, x1 = 0.3045 | 1230.6 | 0.568
313.15 K, x1 = 0.3964 | 1230.9 | 0.607
313.15 K, x1 = 0.4964 | 1232.3 | 0.651
313.15 K, x1 = 0.6046 | 1234.9 | 0.704
313.15 K, x1 = 0.7244 | 1238.8 | 0.775
313.15 K, x1 = 0.8548 | 1243.7 | 0.862
313.15 K, x1 = 1 | – | 0.961
323.15 K, x1 = 0.0681 | 1194.9 | 0.446
323.15 K, x1 = 0.1544 | 1191.8 | 0.466
323.15 K, x1 = 0.2197 | 1190.6 | 0.484
323.15 K, x1 = 0.3045 | 1190.1 | 0.51
323.15 K, x1 = 0.3964 | 1190.7 | 0.541
323.15 K, x1 = 0.4964 | 1192.5 | 0.58
323.15 K, x1 = 0.6046 | 1195.4 | 0.625
323.15 K, x1 = 0.7244 | 1199.6 | 0.683
323.15 K, x1 = 0.8548 | 1204.8 | 0.754
323.15 K, x1 = 1 | – | 0.837
333.15 K, x1 = 0.0681 | 1153.9 | 0.405
333.15 K, x1 = 0.1544 | 1151.2 | 0.422
333.15 K, x1 = 0.2197 | 1150.3 | 0.437
333.15 K, x1 = 0.3045 | 1150.2 | 0.46
333.15 K, x1 = 0.3964 | 1151.1 | 0.486
333.15 K, x1 = 0.4964 | 1153.2 | 0.519
333.15 K, x1 = 0.6046 | 1156.5 | 0.558
333.15 K, x1 = 0.7244 | 1161 | 0.604
333.15 K, x1 = 0.8548 | 1166.5 | 0.663
333.15 K, x1 = 1 | – | 0.735
343.15 K, x1 = 0.0681 | – | 0.37
343.15 K, x1 = 0.1544 | – | 0.379
343.15 K, x1 = 0.2197 | – | 0.397
343.15 K, x1 = 0.3045 | – | 0.418
343.15 K, x1 = 0.3964 | – | 0.438
343.15 K, x1 = 0.4964 | – | 0.469
343.15 K, x1 = 0.6046 | – | 0.502
343.15 K, x1 = 0.7244 | – | 0.535
343.15 K, x1 = 0.8548 | – | 0.586
343.15 K, x1 = 1 | – | 0.648
353.15 K, x1 = 0.0681 | – | 0.325
353.15 K, x1 = 0.1544 | – | 0.345
353.15 K, x1 = 0.2197 | – | 0.356
353.15 K, x1 = 0.3045 | – | 0.373
353.15 K, x1 = 0.3964 | – | 0.395
353.15 K, x1 = 0.4964 | – | 0.426
353.15 K, x1 = 0.6046 | – | 0.451
353.15 K, x1 = 0.7244 | – | 0.49
353.15 K, x1 = 0.8548 | – | 0.532
353.15 K, x1 = 1 | – | 0.576

Details | surface tension liquid-gas [mN/m]
x1 = 0.0681 | 28.1
x1 = 0.1544 | 27.7
x1 = 0.2197 | 27.5
x1 = 0.3045 | 27.3
x1 = 0.3964 | 27.2
x1 = 0.4964 | 27
x1 = 0.6046 | 26.9
x1 = 0.7244 | 26.7

CCCCC1CCCCC1 [butylcyclohexane] + CCCCCCCCCCCCCCCC
Details | speed of sound [m/s] | viscosity [mPa·s]
293.15 K, x1 = 0.1524 | 1353.6 | 3.07
293.15 K, x1 = 0.2876 | 1349.9 | 2.76
293.15 K, x1 = 0.4091 | 1346.4 | 2.48
293.15 K, x1 = 0.5182 | 1343.3 | 2.25
293.15 K, x1 = 0.6173 | 1340.4 | 2.04
293.15 K, x1 = 0.7078 | 1337.4 | 1.86
293.15 K, x1 = 0.7902 | 1334.9 | 1.7
293.15 K, x1 = 0.8658 | 1332.7 | 1.55
293.15 K, x1 = 0.9355 | 1330.4 | 1.42
293.15 K, x1 = 1 | – | 1.31
303.15 K, x1 = 0.1524 | 1316.4 | 2.46
303.15 K, x1 = 0.2876 | 1312.6 | 2.23
303.15 K, x1 = 0.4091 | 1309 | 2.03
303.15 K, x1 = 0.5182 | 1305.6 | 1.85
303.15 K, x1 = 0.6173 | 1302.5 | 1.69
303.15 K, x1 = 0.7078 | 1299.2 | 1.55
303.15 K, x1 = 0.7902 | 1296.4 | 1.42
303.15 K, x1 = 0.8658 | 1293.8 | 1.31
303.15 K, x1 = 0.9355 | 1291.2 | 1.21
303.15 K, x1 = 1 | – | 1.12
313.15 K, x1 = 0.1524 | 1279.7 | 2.01
313.15 K, x1 = 0.2876 | 1275.8 | 1.84
313.15 K, x1 = 0.4091 | 1272 | 1.68
313.15 K, x1 = 0.5182 | 1268.5 | 1.54
313.15 K, x1 = 0.6173 | 1265.1 | 1.42
313.15 K, x1 = 0.7078 | 1261.5 | 1.31
313.15 K, x1 = 0.7902 | 1258.3 | 1.21
313.15 K, x1 = 0.8658 | 1255.3 | 1.12
313.15 K, x1 = 0.9355 | 1252.3 | 1.03
313.15 K, x1 = 1 | – | 0.961
323.15 K, x1 = 0.1524 | 1243.6 | 1.68
323.15 K, x1 = 0.2876 | 1239.6 | 1.54
323.15 K, x1 = 0.4091 | 1235.5 | 1.42
323.15 K, x1 = 0.5182 | 1231.8 | 1.31
323.15 K, x1 = 0.6173 | 1228.2 | 1.21
323.15 K, x1 = 0.7078 | 1224.3 | 1.12
323.15 K, x1 = 0.7902 | 1220.8 | 1.04
323.15 K, x1 = 0.8658 | 1217.6 | 0.966
323.15 K, x1 = 0.9355 | 1214.1 | 0.897
323.15 K, x1 = 1 | – | 0.837
333.15 K, x1 = 0.1524 | 1208.1 | 1.42
333.15 K, x1 = 0.2876 | 1203.9 | 1.31
333.15 K, x1 = 0.4091 | 1199.7 | 1.21
333.15 K, x1 = 0.5182 | 1195.7 | 1.13
333.15 K, x1 = 0.6173 | 1191.8 | 1.05
333.15 K, x1 = 0.7078 | 1187.6 | 0.972
333.15 K, x1 = 0.7902 | 1183.9 | 0.906
333.15 K, x1 = 0.8658 | 1180.3 | 0.844
333.15 K, x1 = 0.9355 | 1176.4 | 0.783
333.15 K, x1 = 1 | – | 0.735
343.15 K, x1 = 0.1524 | – | 1.22
343.15 K, x1 = 0.2876 | – | 1.13
343.15 K, x1 = 0.4091 | – | 1.05
343.15 K, x1 = 0.5182 | – | 0.977
343.15 K, x1 = 0.6173 | – | 0.912
343.15 K, x1 = 0.7078 | – | 0.851
343.15 K, x1 = 0.7902 | – | 0.797
343.15 K, x1 = 0.8658 | – | 0.745
343.15 K, x1 = 0.9355 | – | 0.694
343.15 K, x1 = 1 | – | 0.648
353.15 K, x1 = 0.1524 | – | 1.06
353.15 K, x1 = 0.2876 | – | 0.987
353.15 K, x1 = 0.4091 | – | 0.921
353.15 K, x1 = 0.5182 | – | 0.86
353.15 K, x1 = 0.6173 | – | 0.805
353.15 K, x1 = 0.7078 | – | 0.753
353.15 K, x1 = 0.7902 | – | 0.706
353.15 K, x1 = 0.8658 | – | 0.662
353.15 K, x1 = 0.9355 | – | 0.619
353.15 K, x1 = 1 | – | 0.576

Details | surface tension liquid-gas [mN/m]
x1 = 0.1524 | 26.9
x1 = 0.2876 | 26.9
x1 = 0.4091 | 26.9
x1 = 0.5182 | 26.8
x1 = 0.6173 | 26.8
x1 = 0.7078 | 26.8
x1 = 0.7902 | 26.7
x1 = 0.8658 | 26.7
x1 = 0.9355 | 26.7
